Measured values reported in patent publication US12522583B2, “Benzimidazole derivatives and aza-benzimidazole derivatives as Janus kinase 2 inhibitors and uses thereof” (Dana-Farber Cancer Institute, Inc., priority 2018, dated 2026).

Legend:
Assay in all cases: KINOMEscan
Assay type in all cases: binding
Settings in all cases: read-out: percent control
[1] = biological target: TEC (Homo sapiens (Human), UniProt P42680)
Source text: (§1) Example 2. In Vitro Kinase Selectivity Profiling of the Compounds of the Present Disclosure

[2] = biological target: PHKG1 (Homo sapiens (Human), UniProt Q16816)
Source text: as §1

[3] = biological target: DAPK3 (Homo sapiens (Human), UniProt O43293)
Source text: as §1

[4] = biological target: EGFR(L747-S752del, P753S) (Homo sapiens (Human), UniProt P00533, DEL747-752/P753S)
Source text: as §1

[5] = biological target: STK36 (Homo sapiens (Human), UniProt Q9NRP7)
Source text: as §1

[6] = biological target: RSK4(Kin.Dom.1-N-terminal) (Homo sapiens (Human), UniProt Q9UK32)
Source text: as §1

[7] = biological target: EGFR(L858R, T790M) (Homo sapiens (Human), UniProt P00533, L858R/T790M)
Source text: as §1

[8] = biological target: PRKCQ (Homo sapiens (Human), UniProt Q04759)
Chain of PRKCQ (Q04759 whole entry): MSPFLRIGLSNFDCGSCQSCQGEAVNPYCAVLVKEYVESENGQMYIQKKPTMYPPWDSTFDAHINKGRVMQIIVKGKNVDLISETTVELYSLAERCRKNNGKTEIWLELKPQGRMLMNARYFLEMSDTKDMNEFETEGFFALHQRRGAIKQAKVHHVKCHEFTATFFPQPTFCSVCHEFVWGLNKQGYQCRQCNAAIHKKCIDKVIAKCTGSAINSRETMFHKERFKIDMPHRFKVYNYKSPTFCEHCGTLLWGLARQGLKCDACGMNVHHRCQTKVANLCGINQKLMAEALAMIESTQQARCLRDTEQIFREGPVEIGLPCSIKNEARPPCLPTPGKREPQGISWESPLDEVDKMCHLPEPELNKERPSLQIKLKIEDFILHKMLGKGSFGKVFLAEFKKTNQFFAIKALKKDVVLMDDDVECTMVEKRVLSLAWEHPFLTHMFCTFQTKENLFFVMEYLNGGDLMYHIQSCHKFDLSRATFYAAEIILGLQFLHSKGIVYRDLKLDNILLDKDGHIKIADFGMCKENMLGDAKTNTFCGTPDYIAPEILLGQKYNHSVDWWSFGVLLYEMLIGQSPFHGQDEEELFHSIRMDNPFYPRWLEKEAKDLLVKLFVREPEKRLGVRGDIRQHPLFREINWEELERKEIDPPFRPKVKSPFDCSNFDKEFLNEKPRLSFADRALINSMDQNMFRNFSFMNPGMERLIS
Source text: as §1

[9] = biological target: LYN (Homo sapiens (Human), UniProt P07948)
Source text: as §1

[10] = biological target: CLK4 (Homo sapiens (Human), UniProt Q9HAZ1)
Source text: as §1

[11] = biological target: BMPR2 (Homo sapiens (Human), UniProt Q13873)
Source text: as §1

[12] = biological target: p38-gamma (Homo sapiens (Human), UniProt P53778)
Source text: as §1

[13] = biological target: PAK7 (Homo sapiens (Human), UniProt Q9P286)
Source text: as §1

[14] = biological target: TYK2(JH2domain-pseudokinase) (Homo sapiens (Human), UniProt P29597)
Source text: as §1

[15] = biological target: ALK(C1156Y) (Homo sapiens (Human), UniProt Q9UM73, C1156Y)
Source text: as §1

[16] = biological target: FLT3(D835V) (Homo sapiens (Human), UniProt P36888, D835V)
Source text: as §1

[17] = biological target: PIM2 (Homo sapiens (Human), UniProt Q9P1W9)
Source text: as §1

[18] = biological target: YANK3 (Homo sapiens (Human), UniProt Q86UX6)
Source text: as §1

[19] = biological target: TRKA (Homo sapiens (Human), UniProt P04629)
Source text: as §1

[20] = biological target: MARK1 (Homo sapiens (Human), UniProt Q9P0L2)
Chain of MARK1 (Q9P0L2 whole entry): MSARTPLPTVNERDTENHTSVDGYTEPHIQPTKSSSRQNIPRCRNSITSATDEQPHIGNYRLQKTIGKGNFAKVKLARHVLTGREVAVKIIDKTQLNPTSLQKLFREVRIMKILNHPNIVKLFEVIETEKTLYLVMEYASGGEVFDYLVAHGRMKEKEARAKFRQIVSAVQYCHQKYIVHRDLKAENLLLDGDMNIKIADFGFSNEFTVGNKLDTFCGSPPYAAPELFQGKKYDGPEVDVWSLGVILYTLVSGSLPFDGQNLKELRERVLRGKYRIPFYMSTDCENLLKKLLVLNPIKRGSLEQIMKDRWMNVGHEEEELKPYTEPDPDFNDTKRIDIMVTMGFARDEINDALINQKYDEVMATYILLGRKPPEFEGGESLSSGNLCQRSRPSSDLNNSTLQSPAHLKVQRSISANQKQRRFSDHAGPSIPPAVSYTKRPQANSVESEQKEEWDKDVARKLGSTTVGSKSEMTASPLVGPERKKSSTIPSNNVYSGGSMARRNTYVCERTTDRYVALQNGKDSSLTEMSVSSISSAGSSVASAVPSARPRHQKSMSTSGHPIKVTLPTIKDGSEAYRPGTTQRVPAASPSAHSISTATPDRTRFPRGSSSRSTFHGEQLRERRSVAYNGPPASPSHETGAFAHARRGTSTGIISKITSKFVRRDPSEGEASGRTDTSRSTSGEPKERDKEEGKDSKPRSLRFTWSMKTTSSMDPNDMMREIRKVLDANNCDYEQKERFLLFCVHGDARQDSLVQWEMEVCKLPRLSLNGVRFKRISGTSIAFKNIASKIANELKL
Source text: as §1

[21] = biological target: MAP4K2 (Homo sapiens (Human), UniProt Q12851)
Source text: as §1

[22] = biological target: PRKCI (Homo sapiens (Human), UniProt P41743)
Chain of PRKCI (P41743 whole entry): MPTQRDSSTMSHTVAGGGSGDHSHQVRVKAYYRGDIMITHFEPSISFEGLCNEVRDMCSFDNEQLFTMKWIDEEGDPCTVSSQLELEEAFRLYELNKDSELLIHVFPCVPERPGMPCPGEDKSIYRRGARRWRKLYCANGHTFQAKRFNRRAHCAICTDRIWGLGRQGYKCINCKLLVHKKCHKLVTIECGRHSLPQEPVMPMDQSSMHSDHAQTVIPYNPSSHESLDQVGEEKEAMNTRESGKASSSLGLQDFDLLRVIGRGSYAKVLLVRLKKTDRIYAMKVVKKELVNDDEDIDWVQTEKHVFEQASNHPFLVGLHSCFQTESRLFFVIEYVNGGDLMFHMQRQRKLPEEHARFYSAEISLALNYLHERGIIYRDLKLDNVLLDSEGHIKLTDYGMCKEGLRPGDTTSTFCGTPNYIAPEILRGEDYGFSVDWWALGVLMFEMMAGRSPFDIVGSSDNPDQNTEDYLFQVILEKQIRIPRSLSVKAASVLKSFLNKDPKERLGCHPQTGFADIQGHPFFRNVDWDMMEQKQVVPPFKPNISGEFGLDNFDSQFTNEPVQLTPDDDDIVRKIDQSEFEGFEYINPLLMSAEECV
Source text: as §1

[23] = biological target: PCTK1 (Homo sapiens (Human), UniProt Q00536)
Source text: as §1

[24] = biological target: TNIK (Homo sapiens (Human), UniProt Q9UKE5)
Source text: as §1

[25] = biological target: MAPKAPK5 (Homo sapiens (Human), UniProt Q8IW41)
Source text: as §1

[26] = biological target: MERTK (Homo sapiens (Human), UniProt Q12866)
Source text: as §1

[27] = biological target: VPS34 (Homo sapiens (Human), UniProt Q8NEB9)
Source text: as §1

[28] = biological target: CLK1 (Homo sapiens (Human), UniProt P49759)
Source text: as §1

[29] = biological target: CDK8 (Homo sapiens (Human), UniProt P49336)
Source text: as §1

[30] = biological target: NEK7 (Homo sapiens (Human), UniProt Q8TDX7)
Source text: as §1

[31] = biological target: ADCK3 (Homo sapiens (Human), UniProt Q8NI60)
Source text: as §1

[32] = biological target: SgK110 (Homo sapiens (Human), UniProt P0C264)
Source text: as §1

[33] = biological target: GRK4 (Homo sapiens (Human), UniProt P32298)
Source text: as §1

[34] = biological target: CDC2L5 (Homo sapiens (Human), UniProt Q14004)
Chain of CDC2L5 (Q14004 whole entry, looked up): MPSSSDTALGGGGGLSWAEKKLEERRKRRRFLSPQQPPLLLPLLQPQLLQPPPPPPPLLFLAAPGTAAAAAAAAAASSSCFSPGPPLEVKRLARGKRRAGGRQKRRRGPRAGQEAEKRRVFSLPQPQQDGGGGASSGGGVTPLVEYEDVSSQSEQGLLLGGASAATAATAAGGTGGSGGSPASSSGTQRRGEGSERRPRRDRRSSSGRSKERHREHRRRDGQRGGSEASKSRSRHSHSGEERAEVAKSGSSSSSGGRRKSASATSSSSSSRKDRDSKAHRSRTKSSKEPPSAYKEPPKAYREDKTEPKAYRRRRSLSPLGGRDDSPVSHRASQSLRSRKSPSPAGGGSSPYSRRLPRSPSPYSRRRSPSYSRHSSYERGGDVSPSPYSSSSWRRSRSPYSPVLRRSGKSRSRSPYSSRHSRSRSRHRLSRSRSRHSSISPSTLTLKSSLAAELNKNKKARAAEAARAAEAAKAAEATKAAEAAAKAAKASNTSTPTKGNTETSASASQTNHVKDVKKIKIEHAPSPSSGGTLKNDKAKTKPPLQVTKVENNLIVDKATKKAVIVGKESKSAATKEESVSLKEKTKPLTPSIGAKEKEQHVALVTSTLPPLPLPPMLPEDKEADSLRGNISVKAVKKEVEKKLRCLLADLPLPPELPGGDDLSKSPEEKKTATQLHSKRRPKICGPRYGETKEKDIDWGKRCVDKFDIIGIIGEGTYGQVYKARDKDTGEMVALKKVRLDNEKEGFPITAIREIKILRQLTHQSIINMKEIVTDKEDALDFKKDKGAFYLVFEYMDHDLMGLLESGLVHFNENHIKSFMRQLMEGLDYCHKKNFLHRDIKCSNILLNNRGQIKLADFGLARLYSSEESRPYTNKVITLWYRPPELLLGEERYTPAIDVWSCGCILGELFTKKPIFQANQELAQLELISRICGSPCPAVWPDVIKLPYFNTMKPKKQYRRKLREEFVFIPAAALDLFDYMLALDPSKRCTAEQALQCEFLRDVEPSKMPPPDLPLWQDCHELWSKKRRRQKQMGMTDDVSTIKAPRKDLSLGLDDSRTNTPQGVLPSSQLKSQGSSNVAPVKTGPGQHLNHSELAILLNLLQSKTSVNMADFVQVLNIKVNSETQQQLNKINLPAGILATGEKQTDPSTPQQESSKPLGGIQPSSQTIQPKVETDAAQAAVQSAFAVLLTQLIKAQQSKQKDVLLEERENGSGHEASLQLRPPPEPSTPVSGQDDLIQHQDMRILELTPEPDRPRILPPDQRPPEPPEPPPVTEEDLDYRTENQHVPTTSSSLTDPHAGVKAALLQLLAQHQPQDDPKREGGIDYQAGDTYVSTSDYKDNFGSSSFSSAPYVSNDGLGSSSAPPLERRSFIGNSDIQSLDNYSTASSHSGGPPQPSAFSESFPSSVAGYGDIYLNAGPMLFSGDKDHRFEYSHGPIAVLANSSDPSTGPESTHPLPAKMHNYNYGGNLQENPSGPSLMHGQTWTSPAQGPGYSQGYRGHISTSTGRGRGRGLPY
Source text: as §1

[35] = biological target: ABL1(Y253F)-phosphorylated (Homo sapiens (Human), UniProt P00519, Y253F)
Source text: as §1

[36] = biological target: MINK (Homo sapiens (Human), UniProt Q8N4C8)
Source text: as §1

[37] = biological target: PIK3C2G (Homo sapiens (Human), UniProt O75747)
Source text: as §1

[38] = biological target: GRK3 (Homo sapiens (Human), UniProt P35626)
Chain of GRK3 (P35626 whole entry): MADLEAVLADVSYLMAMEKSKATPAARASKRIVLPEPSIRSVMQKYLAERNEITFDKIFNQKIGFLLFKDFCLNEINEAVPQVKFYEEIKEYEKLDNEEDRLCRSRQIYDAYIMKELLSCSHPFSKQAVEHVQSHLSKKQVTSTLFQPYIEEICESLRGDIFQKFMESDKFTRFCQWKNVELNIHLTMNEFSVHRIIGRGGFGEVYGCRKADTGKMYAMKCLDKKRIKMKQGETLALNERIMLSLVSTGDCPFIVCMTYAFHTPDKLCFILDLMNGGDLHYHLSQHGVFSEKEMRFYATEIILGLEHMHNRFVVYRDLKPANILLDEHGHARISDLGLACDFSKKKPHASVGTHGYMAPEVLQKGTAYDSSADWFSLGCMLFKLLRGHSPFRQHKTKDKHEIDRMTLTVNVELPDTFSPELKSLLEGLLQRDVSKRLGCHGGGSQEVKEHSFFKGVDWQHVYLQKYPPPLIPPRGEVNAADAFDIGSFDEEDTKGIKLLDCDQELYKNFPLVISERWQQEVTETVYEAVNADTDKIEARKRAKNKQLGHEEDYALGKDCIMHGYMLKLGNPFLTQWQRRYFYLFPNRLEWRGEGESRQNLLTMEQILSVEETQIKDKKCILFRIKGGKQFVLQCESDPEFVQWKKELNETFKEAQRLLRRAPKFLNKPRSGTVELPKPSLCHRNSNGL
Source text: as §1

[39] = biological target: CDC2L1 (Homo sapiens (Human), UniProt P21127)
Source text: as §1

[40] = biological target: PLK1 (Homo sapiens (Human), UniProt P53350)
Source text: as §1

Chain of TEC (P42680 whole entry): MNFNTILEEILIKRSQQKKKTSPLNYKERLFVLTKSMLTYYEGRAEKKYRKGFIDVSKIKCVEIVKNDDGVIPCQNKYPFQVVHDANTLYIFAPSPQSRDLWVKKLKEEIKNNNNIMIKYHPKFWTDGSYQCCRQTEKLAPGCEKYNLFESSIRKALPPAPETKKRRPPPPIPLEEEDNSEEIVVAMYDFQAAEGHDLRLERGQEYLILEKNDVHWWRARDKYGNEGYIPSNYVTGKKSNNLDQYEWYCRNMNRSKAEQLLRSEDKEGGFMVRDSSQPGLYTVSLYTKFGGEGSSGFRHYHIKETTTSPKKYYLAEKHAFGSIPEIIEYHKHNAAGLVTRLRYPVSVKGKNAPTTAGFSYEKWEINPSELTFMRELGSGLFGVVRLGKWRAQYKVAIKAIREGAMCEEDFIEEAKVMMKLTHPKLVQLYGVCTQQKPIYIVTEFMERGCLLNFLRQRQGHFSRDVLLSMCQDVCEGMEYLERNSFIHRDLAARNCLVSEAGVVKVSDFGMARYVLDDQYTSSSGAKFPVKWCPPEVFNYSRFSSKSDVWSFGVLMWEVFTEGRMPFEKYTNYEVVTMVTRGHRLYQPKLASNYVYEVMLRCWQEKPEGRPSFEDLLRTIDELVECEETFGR

Row | SMILES | remaining binding at 1 µM [1] [%] | remaining binding at 1 µM [2] [%] | remaining binding at 1 µM [3] [%] | remaining binding at 1 µM [4] [%] | remaining binding at 1 µM [5] [%] | remaining binding at 1 µM [6] [%] | remaining binding at 1 µM [7] [%] | remaining binding at 1 µM [8] [%] | remaining binding at 1 µM [9] [%] | remaining binding at 1 µM [10] [%] | remaining binding at 1 µM [11] [%] | remaining binding at 1 µM [12] [%] | remaining binding at 1 µM [13] [%] | remaining binding at 1 µM [14] [%] | remaining binding at 1 µM [15] [%] | remaining binding at 1 µM [16] [%] | remaining binding at 1 µM [17] [%] | remaining binding at 1 µM [18] [%] | remaining binding at 1 µM [19] [%] | remaining binding at 1 µM [20] [%] | further results
1 | CCN1CCN(Cc2ccc(Nc3nc4ccc(Oc5ccnc(NC(C)=O)c5)cc4n3C)cc2C(F)(F)F)CC1 [Compound I-2] | 78 | 94 | 76 | 80 | 79 | 100 | 100 | 67 | 44 | 100 | 100 | 58 | 86 | 100 | 96 | 51 | 91 | 100 | 31 | 98 | remaining binding at 1 µM [21]: 100%; remaining binding at 1 µM [22]: 95%; remaining binding at 1 µM [23]: 84%; remaining binding at 1 µM [24]: 53%; remaining binding at 1 µM [25]: 99%; remaining binding at 1 µM [26]: 32%; remaining binding at 1 µM [27]: 87%; remaining binding at 1 µM [28]: 87%; remaining binding at 1 µM [29]: 17%; remaining binding at 1 µM [30]: 88%; remaining binding at 1 µM [31]: 85%; remaining binding at 1 µM [32]: 86%; remaining binding at 1 µM [33]: 99%; remaining binding at 1 µM [34]: 59%; remaining binding at 1 µM [35]: 44%; remaining binding at 1 µM [36]: 92%; remaining binding at 1 µM [37]: 80%; remaining binding at 1 µM [38]: 100%; remaining binding at 1 µM [39]: 0.1%; remaining binding at 1 µM [40]: 100%
2 | CCN1CCN(Cc2ccc(Nc3nc4ccc(Oc5ccnc(NC(C)=O)c5)c(C)c4n3C)cc2C(F)(F)F)CC1 [Compound I-6, N-(4-(2-(4-((4-ethylpiperazin-1-yl)methyl)-3-(trifluoromethyl)phenylamino)-1,7-dimethyl-1H-benzo[d]imidazol-6-yloxy)pyridin-2-yl)acetamide] | 100 | 91 | 99 | 94 | 92 | 93 | 100 | 97 | 12 | 81 | 100 | 62 | 16 | 76 | 92 | 40 | 92 | 89 | 3.5 | 92 | remaining binding at 1 µM [21]: 68%; remaining binding at 1 µM [22]: 71%; remaining binding at 1 µM [23]: 68%; remaining binding at 1 µM [24]: 75%; remaining binding at 1 µM [25]: 83%; remaining binding at 1 µM [26]: 59%; remaining binding at 1 µM [27]: 100%; remaining binding at 1 µM [28]: 94%; remaining binding at 1 µM [29]: 10%; remaining binding at 1 µM [30]: 95%; remaining binding at 1 µM [31]: 100%; remaining binding at 1 µM [32]: 100%; remaining binding at 1 µM [33]: 81%; remaining binding at 1 µM [34]: 3.8%; remaining binding at 1 µM [35]: 5.5%; remaining binding at 1 µM [36]: 59%; remaining binding at 1 µM [37]: 86%; remaining binding at 1 µM [38]: 79%; remaining binding at 1 µM [39]: 0%; remaining binding at 1 µM [40]: 71%
